For 22 compounds, IC50 results are on record in US12384753B2, “17-beta-hydroxysteroid dehydrogenase type 13 inhibitors and methods of use thereof” (Enanta Pharmaceuticals, Inc., priority 2021, dated 2025).

One may read the IC50 as the concentration at which inhibition is half-maximal.

In this experiment the target is Recombinant human HSD17B13 (Homo sapiens (Human), UniProt Q7Z5P4). The experiment in a line: HSD17B13 rapid-fire mass spectrometry assay (RF/MS assay). Type of experiment: biochemical. Conditions: inhibition of HSD17B13; LTB4 10 μM, NAD+ 0.5 mM, RT 3 h; IC50 ranges A-E. The method in brief: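 Sf9-expressed human HSD17B13 (80 nM) with 10 μM LTB4 and 0.5 mM NAD+, incubated with compound (0–100 μM) for 3 h at RT in Tris pH 7.5/BSA/Tween-20. After formic acid quench, LTB4 conversion to 12-oxo-LTB4 measured by RapidFire MS/MS. IC50 from normalised residual activity, duplicates.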
Sequence of Recombinant human HSD17B13 (Q7Z5P4 20-300): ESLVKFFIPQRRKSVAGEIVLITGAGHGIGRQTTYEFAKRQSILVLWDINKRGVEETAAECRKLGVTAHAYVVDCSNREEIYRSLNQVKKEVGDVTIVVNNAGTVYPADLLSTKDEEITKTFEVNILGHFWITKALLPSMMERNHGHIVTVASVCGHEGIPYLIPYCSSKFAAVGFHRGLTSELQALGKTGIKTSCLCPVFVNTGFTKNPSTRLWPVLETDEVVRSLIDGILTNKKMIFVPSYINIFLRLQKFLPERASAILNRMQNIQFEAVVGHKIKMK
Regarding `COc1cc(C(=O)O)ccc1NS(=O)(=O)c1cnc(-c2ccc(C3=CCC4(CC3)CC4)cc2)s1` [Example 736], the half-maximal inhibitory concentration (IC50) was in the range of 100 to 500 nM.

Regarding `COc1cc(C(=O)O)c(F)cc1NS(=O)(=O)c1csc(-c2ccc(-c3ccc(-c4ccc(C56CC7C[C@H](C5)C[C@H](C7)C6)cc4)cc3C(F)(F)F)cc2C(F)(F)F)n1` [Example 737], the IC50 was 1000 to 100000 nM. `COc1cc(C(=O)O)c(F)cc1NS(=O)(=O)c1csc(-c2ccc(-c3ccc(C45CC6C[C@H](C4)C[C@H](C6)C5)cc3)c(C(F)(F)F)c2)n1` [Example 738]: the IC50 was 100 to 500 nM. Take `COc1cc(C(=O)O)c(F)cc1NS(=O)(=O)c1csc(-c2ccc(-c3ccc(C45CC6C[C@H](C4)C[C@H](C6)C5)cc3)c(F)c2F)n1` [Example 739]: the IC50 lay within 100 to 500 nM.

As to `COc1cc(C(=O)O)c(F)cc1NS(=O)(=O)c1csc(-c2ccc(-c3ccc(C(F)(F)F)cc3)cc2)n1` [Example 740], the half-maximal inhibitory concentration (IC50) was < 100 nM.

On to `COc1cc(C(=O)O)c(F)cc1NS(=O)(=O)c1csc(-c2ccc(C3=CCC(C(C)C)CC3)cc2C(F)(F)F)n1` (stereo not shown) [Example 741], for which the IC50 is < 100 nM. Then `COc1cc(C(=O)O)c(F)cc1NS(=O)(=O)c1csc(-c2ccc(-c3ccc(C4=CCC(C(C)C)CC4)cc3C(F)(F)F)cc2C(F)(F)F)n1` (stereo not shown) [Example 742], with 100 to 500 nM; and `COc1cc(C(=O)O)c(F)cc1NS(=O)(=O)c1csc(-c2ccc(-c3ccc(C45CC6C[C@H](C4)C[C@H](C6)C5)cc3)c(OC)c2)n1` [Example 743], with 100 to 500 nM. As to `COc1cc(C(=O)O)c(F)cc1NS(=O)(=O)c1csc(-c2ccc(-c3ccc(C45CC6C[C@H](C4)C[C@H](C6)C5)cc3)cc2OC)n1` [Example 744], the IC50 lay in the range of 100 to 500 nM. As to `COc1cc(C(=O)O)c(F)cc1NS(=O)(=O)c1csc(-c2ccc(C(F)(F)C(F)(F)F)cc2)n1` [Example 745], the concentration for half-maximal inhibition (IC50) is 100 to 500 nM. Then `COc1cc(C(=O)O)ccc1NS(=O)(=O)c1cnc(-c2ccc(C3CCC4(CC3)CC4)cc2)s1` [Example 746], with 100 to 500 nM. Turning to `COc1cc(C(=O)O)c(F)cc1NS(=O)(=O)c1csc(-c2ccc(C3=CCC(C(C)(C)C)CC3)cc2)n1` (stereo not shown) [Example 747], the half-maximal inhibitory concentration (IC50) is < 100 nM. On to `COc1cc(C(=O)O)c(F)cc1NS(=O)(=O)c1csc(-c2ccc(C3(O)CCC(C)(C)CC3)cc2)n1` [Example 748], for which the IC50 is < 100 nM. `COc1cc(C(=O)O)ccc1NS(=O)(=O)c1csc(-c2ccc(F)cc2)n1` [Example 749]: the 50% inhibitory concentration (IC50) fell in the range of 100 to 500 nM.

With `COc1cc(C(=O)O)c(F)cc1NS(=O)(=O)c1csc(-c2ccc(-c3ccc(C45CC6C[C@H](C4)C[C@H](C6)C5)cc3)c(OC(F)(F)F)c2)n1` [Example 750], the IC50 is 100 to 500 nM.

For `COc1cc(C(=O)O)c(F)cc1NS(=O)(=O)c1csc(-c2ccc(-c3ccc(C4CCC(C(C)C)CC4)cc3C(F)(F)F)cc2C(F)(F)F)n1` (stereo not shown) [Example 753], the half-inhibitory concentration (IC50) was 100 to 500 nM. Then `COc1cc(C(=O)O)c(F)cc1NS(=O)(=O)c1csc(-c2ccc(-c3ccc([C@H]4CC[C@H](C(C)C)CC4)cc3C(F)(F)F)cc2C(F)(F)F)n1` [Example 754], with 100 to 500 nM. Then `CCC[C@H]1CC[C@H](c2ccc(-c3nc(S(=O)(=O)Nc4cc(F)c(C(=O)O)cc4OC)cs3)c(F)c2)CC1` [Example 755], with < 100 nM. As to `COc1cc(C(=O)O)c(F)cc1NS(=O)(=O)c1csc(-c2ccc(-c3ccc(C(C)(F)F)cc3)cc2C(F)(F)F)n1` [Example 756], the concentration for half-maximal inhibition (IC50) was < 100 nM.

Consider `COc1cc(C(=O)O)c(F)cc1NS(=O)(=O)c1csc(-c2ccc(-c3ccc(C4CC4)cc3C(F)(F)F)cc2C(F)(F)F)n1` [Example 757], for which the 50% inhibitory concentration (IC50) is < 100 nM.

As for `COc1cc(C(=O)O)c(F)cc1NS(=O)(=O)c1csc(-c2ccc(C3=CCC4(CC3)CC4)cc2)n1` [Example 758], the half-inhibitory concentration (IC50) is 100 to 500 nM. The value for `CCCCC[C@H]1CC[C@H](c2ccc(-c3nc(S(=O)(=O)Nc4cc(F)c(C(=O)O)cc4OC)cs3)c(F)c2)CC1` [Example 759] was 100 to 500 nM.
